In patent US5516790A, “Synthesis and application of alkyl-substituted dibenzofurans as antitumorigenic agents” (Texas A&M University System Technology Licensing Office, priority 1994, dated 1996):
Like-named read-outs stand apart in the source and are kept apart here.

Columns and labels:
[1] = system: progesterone receptor (PR); assay: Uterine progesterone receptor levels, hydroxyapatite assay (Example 8); type: in vivo, female Sprague-Dawley rats; conditions: run A
[2] = system: estrogen receptor (ER); type: in vivo, female Sprague/Dawley rats
Procedure: (§1) TCDD or MCDF was co-administered with a second dose of estradiol and the animals were killed 48-hours later. A second group of animals was similarly treated with corn oil, TCDD, MCDF, or TCDD plus MCDF, all administered in corn oil at 10 ml/kg and terminated 72 hours later.
(§2) The animals were terminated by cervical dislocation. Livers were perfused with ice-cold TEDG buffer (10 mM Tris-HCl, 1.5 mM EDTA-4Na, 1 mM dithiothreitol, 10% glycerol (v/v), pH 7.4). Following perfusion in situ, livers were removed, weighed, and homogenized in ice-cold TEDG buffer. Uteri were also removed, weighed, and homogenized in ice-cold buffer. The homogenates were then centrifuged at 800×g […] for 15 minutes and the nuclear pellets were stored at -80° C. The supernatants were further centrifuged at 180,000×g for 1.5 hour. The cytosolic supernatant was also stored at -80° C. Estrogen and progesterone receptor levels were determined within 7 days.
(§3) Estrogen and progesterone receptor levels were determined by the hydroxyapatite assay as described by Clark et al. (J. Steroid, Biochem., 16, 323-328 (1982)). […] Following the incubations, samples were counted and specific binding was calculated by subtraction of nonspecific from total binding. Assuming one steroid molecule binds to one estrogen/progesterone receptor, the number of moles of receptor can be calculated given the specific activity of the radioligand. […] Significant differences were determined by ANOVA.

[3] = system: progesterone receptor (PR); type: in vivo, female Sprague/Dawley rats
Procedure: as §1, §2, §3

[4] = system: AHH and EROD induction; assay: TCDD antagonism / Ah receptor agonist activity (AHH and EROD induction)
[5] = system: Ah receptor; assay: Binding affinity for the Ah receptor
[6] = system: estrogen receptor; assay: Uterine and hepatic estrogen receptor levels (literature); type: in vivo, rat; conditions: in comparison to control test animals, rats and mice
[7] = system: uterus; assay: Uterine wet weight / uterotrophic effects (literature, summary); type: in vivo, rat; conditions: rats, in comparison to control
[8] = system: uterus; assay: Uterine wet weights in mice (summary); type: in vivo; conditions: in comparison to control
[9] = system: 34-kDa protein; conditions: Biegel and Safe, 1990; cited from earlier work
[10] = system: 52-kDa protein; conditions: Biegel and Safe, 1990; cited from earlier work
[11] = system: 160-kDa protein; conditions: Biegel and Safe, 1990; cited from earlier work
[12] = system: AHH and EROD induction; conditions: previous studies; cited from earlier work
[13] = system: EGF receptor; conditions: cited from earlier work
[14] = Toxicity; conditions: in vivo
[15] = system: MDA-MB-231 cell line; conditions: cited from earlier work
[16] = in vivo; cited from earlier work
[17] = system: estrogen receptor; conditions: cited from earlier work
[18] = system: uterus; conditions: cited from earlier work
[19] = system: tissue plasminogen activator; conditions: MCF-7 human breast cancer cells; cited from earlier work
[20] = system: mammary and uterine tumors; conditions: long term feeding studies; cited from earlier work
[21] = 150 μmol/kg + E-2 (2 × 10 μg/rat)
[22] = compound alone, 150 μmol/kg (17β-estradiol: 2 × 10 μg/rat)
[23] = Table 11, compound alone: TCDD 0.256 or MCDF 100 μmol/kg, or estradiol

Cc1cc(Cl)cc2c1oc1cc(Cl)cc(Cl)c12 [MCDF, 6-methyl 1,3,8-trichlorodibenzofuran]
Progesterone Receptor Levels, Cytosolic [1, 21]: 1203 ± 110 fmol/mg protein | Progesterone Receptor Levels, Nuclear [1, 21]: 435 ± 91 fmol/mg protein | Progesterone Receptor Levels, Cytosolic [1, 22]: 915 ± 63 fmol/mg protein | Progesterone Receptor Levels, Nuclear [1, 22]: 312 ± 50 fmol/mg protein | Hepatic ERc ([2]; MCDF 10 μmol/kg): 6.6 ± 0.5 fmol/mg protein | Hepatic ERn ([2]; MCDF 10 μmol/kg): 6.1 ± 1.0 fmol/mg protein | Uterine ERc ([2]; MCDF 10 μmol/kg): 137.7 ± 11.6 fmol/mg protein | Uterine ERn ([2]; MCDF 10 μmol/kg): 15.8 ± 1.9 fmol/mg protein | Hepatic ERc ([2]; MCDF 50 μmol/kg): 4.6 ± 0.8 fmol/mg protein | Hepatic ERn ([2]; MCDF 50 μmol/kg): 3.5 ± 0.6 fmol/mg protein | Uterine ERc ([2]; MCDF 50 μmol/kg): 110.3 ± 6.6 fmol/mg protein | Uterine ERn ([2]; MCDF 50 μmol/kg): 13.2 ± 2.1 fmol/mg protein | Hepatic ERc ([2]; MCDF 100 μmol/kg): 3.1 ± 0.3 fmol/mg protein | Hepatic ERn ([2]; MCDF 100 μmol/kg): 3.1 ± 0.7 fmol/mg protein | Uterine ERc ([2]; MCDF 100 μmol/kg): 90.2 ± 11.2 fmol/mg protein | Uterine ERn ([2]; MCDF 100 μmol/kg): 11.5 ± 1.0 fmol/mg protein | constitutive uterine hepatic estrogen receptors ([2]; MCDF 50 and 100 μmol/kg): dose dependent decrease | Hepatic ERc ([2]; Table 11, cotreatment with E-2): 8.1 ± 1.2 fmol/mg protein | Hepatic ERn ([2]; Table 11, cotreatment with E-2): 3.6 ± 0.9 fmol/mg protein | Uterine ERc ([2]; Table 11, cotreatment with E-2): 93.5 ± 4.0 fmol/mg protein | Uterine ERn ([2]; Table 11, cotreatment with E-2): 18.5 ± 1.2 fmol/mg protein | Hepatic ERc ([2]; rat, in vivo): 3.7 ± 1.1 | Hepatic ERn ([2]; rat, in vivo): 3.1 ± 0.2 | Uterine ERc ([2]; rat, in vivo): 67.8 ± 2.5 | Uterine ERn ([2]; rat, in vivo): 13.0 ± 1.1 | uterine and hepatic estrogen receptors and progesterone receptor levels, of corresponding levels with 17β-estradiol alone (1st of four values) ([2]; rat, in vivo): 43% | uterine and hepatic estrogen receptors and progesterone receptor levels, of corresponding levels with 17β-estradiol alone (2nd of four values) ([2]; rat, in vivo): 59% | Hepatic PRc ([3]; MCDF 10 μmol/kg): 74.3 ± 8.1 fmol/mg protein | Hepatic PRn ([3]; MCDF 10 μmol/kg): 8.9 ± 1.5 fmol/mg protein | Uterine PRc ([3]; MCDF 10 μmol/kg): 980 ± 34.6 fmol/mg protein | Uterine PRn ([3]; MCDF 10 μmol/kg): 390 ± 31.6 fmol/mg protein | Hepatic PRc ([3]; MCDF 50 μmol/kg): 66.0 ± 7.1 fmol/mg protein | Hepatic PRn ([3]; MCDF 50 μmol/kg): 7.6 ± 1.0 fmol/mg protein | Uterine PRc ([3]; MCDF 50 μmol/kg): 886 ± 20.1 fmol/mg protein | Uterine PRn ([3]; MCDF 50 μmol/kg): 290 ± 30.2 fmol/mg protein | Hepatic PRc ([3]; MCDF 100 μmol/kg): 40.2 ± 3.2 fmol/mg protein | Hepatic PRn ([3]; MCDF 100 μmol/kg): 6.8 ± 1.0 fmol/mg protein | Uterine PRc ([3]; MCDF 100 μmol/kg): 811 ± 26.4 fmol/mg protein | Uterine PRn ([3]; MCDF 100 μmol/kg): 240 ± 26.1 fmol/mg protein | constitutive uterine hepatic progesterone receptor levels ([3]; MCDF 50 and 100 μmol/kg): dose dependent decrease | Hepatic PRc ([3]; Table 11, cotreatment with E-2): 108.9 ± 11.1 fmol/mg protein | Hepatic PRn ([3]; Table 11, cotreatment with E-2): 6.4 ± 1.0 fmol/mg protein | Uterine PRc ([3]; Table 11, cotreatment with E-2): 941.2 ± 45.1 fmol/mg protein | Uterine PRn ([3]; Table 11, cotreatment with E-2): 602 ± 11.4 fmol/mg protein | Hepatic PRc ([3]; rat, in vivo): 60.6 ± 8.4 fmol/mg protein | Hepatic PRn ([3]; rat, in vivo): 5.1 ± 1.0 fmol/mg protein | Uterine PRc ([3]; rat, in vivo): 805.3 ± 29.0 fmol/mg protein | Uterine PRn ([3]; rat, in vivo): 205 ± 10.6 fmol/mg protein | uterine and hepatic estrogen receptors and progesterone receptor levels, of corresponding levels with 17β-estradiol alone (3rd of four values) ([3]; rat, in vivo): 36% | uterine and hepatic estrogen receptors and progesterone receptor levels, of corresponding levels with 17β-estradiol alone (4th of four values) ([3]; rat, in vivo): 75% | agonist for Ah receptor mediated response [4]: poor agonist | Ah receptor binding activity [5]: relatively high | nuclear and cytosolic hepatic and uterine estrogen receptors [6]: decreases | uterine wet weights [7]: decreases | uterine wet weights [8]: decreases | 17β-estradiol-induced secretion of the 34-kDa protein [9]: inhibits | 17β-estradiol-induced secretion of the 52-kDa protein [10]: inhibits | 17β-estradiol-induced secretion of the 160-kDa protein [11]: inhibits | antagonist to the activities of TCDD [12]: antagonist | 17β-estradiol-induced increased EGF receptor binding and mRNA levels [13]: inhibits | toxicity [14]: low toxicity | toxicity of amounts giving antiestrogenic effects [14]: nontoxic

Clc1cc2c(cc1Cl)Oc1cc(Cl)c(Cl)cc1O2 [TCDD, 2,3,7,8-tetrachloridibenzo-p-dioxin]
Hepatic ERc ([2]; TCDD 0.256 μmol/kg): 1.7 ± 0.3 fmol/mg protein | Hepatic ERn ([2]; TCDD 0.256 μmol/kg): 2.3 ± 0.6 fmol/mg protein | Uterine ERc ([2]; TCDD 0.256 μmol/kg): 92.1 ± 8.2 fmol/mg protein | Uterine ERn ([2]; TCDD 0.256 μmol/kg): 10.6 ± 0.6 fmol/mg protein | Hepatic ERc [2, 23]: 2.2 ± 0.8 fmol/mg protein | Hepatic ERn [2, 23]: 2.4 ± 0.4 fmol/mg protein | Uterine ERc [2, 23]: 57.8 ± 6.3 fmol/mg protein | Uterine ERn [2, 23]: 11.7 ± 0.8 fmol/mg protein | Hepatic ERc ([2]; Table 11, cotreatment with E-2): 6.8 ± 1.0 fmol/mg protein | Hepatic ERn ([2]; Table 11, cotreatment with E-2): 4.0 ± 0.8 fmol/mg protein | Uterine ERc ([2]; Table 11, cotreatment with E-2): 82.8 ± 5.4 fmol/mg protein | Uterine ERn ([2]; Table 11, cotreatment with E-2): 17.4 ± 1.0 fmol/mg protein | Hepatic PRc ([3]; TCDD 0.256 μmol/kg): 38.3 ± 3.9 fmol/mg protein | Hepatic PRn ([3]; TCDD 0.256 μmol/kg): 5.9 ± 1.1 fmol/mg protein | Uterine PRc ([3]; TCDD 0.256 μmol/kg): 82 ± 30.2 fmol/mg protein | Uterine PRn ([3]; TCDD 0.256 μmol/kg): 190 ± 14.2 fmol/mg protein | Hepatic PRc [3, 23]: 61.9 ± 7.3 fmol/mg protein | Hepatic PRn [3, 23]: 5.9 ± 0.4 fmol/mg protein | Uterine PRc [3, 23]: 898.0 ± 49.2 fmol/mg protein | Uterine PRn [3, 23]: 180 ± 9.9 fmol/mg protein | Hepatic PRc ([3]; Table 11, cotreatment with E-2): 110.3 ± 8.3 fmol/mg protein | Hepatic PRn ([3]; Table 11, cotreatment with E-2): 6.8 ± 1.3 fmol/mg protein | Uterine PRc ([3]; Table 11, cotreatment with E-2): 811.3 ± 27.1 fmol/mg protein | Uterine PRn ([3]; Table 11, cotreatment with E-2): 511 ± 19.3 fmol/mg protein | secretion of the 34-, 52- and 160-kDa proteins ([15]; TCDD plus 17β-estradiol): did not affect | secretion of the 34-, 52- and 160-kDa proteins ([15]; compound alone): did not affect | hepatocarcinogenicity [16]: so hepatocarcinogenic | binding to the estrogen receptor [17]: does not bind | estrogenic effects of 17β-estradiol on uterine weights ([18]; TCDD with 17β-estradiol): partially blocked | uterine weights ([18]; female Long Evans rats): decreased | estrogen mediated excretion of tissue plasminogen activator activity [19]: suppressed | spontaneous development of mammary and uterine tumors [20]: significantly decreased
